This note sets out measurements from BindingDB's records for doi:10.1021/jm050004k (Karo Bio, 2005).

For assay [1], the target named is T1, Thyroid hormone receptor alpha (Homo sapiens, UniProt P10827).
T1 sequence (P10827 whole entry): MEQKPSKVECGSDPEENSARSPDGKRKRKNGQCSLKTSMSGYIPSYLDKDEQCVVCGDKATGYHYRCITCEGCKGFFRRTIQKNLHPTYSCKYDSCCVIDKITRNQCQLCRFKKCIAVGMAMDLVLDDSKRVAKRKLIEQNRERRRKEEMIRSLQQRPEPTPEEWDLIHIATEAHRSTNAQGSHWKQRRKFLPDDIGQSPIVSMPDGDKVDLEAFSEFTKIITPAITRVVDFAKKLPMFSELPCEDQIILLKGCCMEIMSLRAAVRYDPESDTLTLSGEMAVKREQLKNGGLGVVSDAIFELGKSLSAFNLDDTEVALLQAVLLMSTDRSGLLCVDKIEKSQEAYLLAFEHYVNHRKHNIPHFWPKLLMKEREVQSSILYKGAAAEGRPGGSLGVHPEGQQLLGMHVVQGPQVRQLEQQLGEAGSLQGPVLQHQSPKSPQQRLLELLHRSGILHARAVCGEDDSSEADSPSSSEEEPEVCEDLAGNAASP
Put plainly: TRalpha-Binding Assay and Thyroid Response Element (TRAFalpha1) Reporter Assay. As to conditions: pH 7; 4 °C. The text has this:
IIC50 is the concentration of each compound required to inhibit 50% binding of 125I-T3 to hTRalpha. EC50 is the concentration of compound required to inhibit 50% of T3-induced TRalpha-activation in CHOK1 cells stably transfected with hTRalpha using alkaline phosphatase reporter assay.

Assay [2] has as its target T2, Thyroid hormone receptor beta (Homo sapiens, UniProt P10828).
T2 sequence (P10828 whole entry): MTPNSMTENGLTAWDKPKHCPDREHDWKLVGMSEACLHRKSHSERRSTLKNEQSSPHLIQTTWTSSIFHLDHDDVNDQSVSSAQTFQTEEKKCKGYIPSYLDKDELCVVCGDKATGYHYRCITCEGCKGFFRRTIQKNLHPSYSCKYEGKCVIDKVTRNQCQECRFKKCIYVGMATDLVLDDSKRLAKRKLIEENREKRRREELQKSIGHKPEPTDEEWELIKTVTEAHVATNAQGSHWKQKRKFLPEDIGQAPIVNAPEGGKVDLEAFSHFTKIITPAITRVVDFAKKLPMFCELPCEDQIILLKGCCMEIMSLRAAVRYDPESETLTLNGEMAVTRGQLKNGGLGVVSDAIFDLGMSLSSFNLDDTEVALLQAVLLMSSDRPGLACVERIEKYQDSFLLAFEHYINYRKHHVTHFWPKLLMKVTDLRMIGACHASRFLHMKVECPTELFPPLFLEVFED
Put plainly: TRbeta-Binding Assay and Thyroid Response Element (TRAFbeta1) Reporter Assay. As to conditions: pH 7; 4 °C. The text has this: IC50 is the concentration of each compound required to inhibit 50% binding of 125I-T3 to hTRbeta. EC50 is the concentration of compound required to inhibit 50% of T3-induced TRbeta-activation in CHOK1 cells stably transfected with hTRbeta using alkaline phosphatase reporter assay.

The structures appear in SMILES notation.

With `O=C(O)Cc1cc(Br)c(OCC2CCCCC2)c(Br)c1` [2-[3,5-dibromo-4-(cyclohexylmethoxy)phenyl]acetic acid], the EC50 in assay [1] was 0.42 nM; in assay [2], 0.52 nM.
Take `CC(C)CCOc1c(Br)cc(CC(=O)O)cc1Br` [2-[3,5-dibromo-4-(3-methylbutoxy)phenyl]acetic acid]: the 50% inhibitory concentration (IC50) in assay [2] turned out to be 1800 nM.
On to `CCC(CC)COc1c(Br)cc(CC(=O)O)cc1Br` [2-[3,5-dibromo-4-(2-ethylbutoxy)phenyl]acetic acid], for which the half-maximal effective concentration (EC50) in assay [1] was found to be 0.82 nM; in assay [2], 0.7 nM.
The corresponding values for `O=C(O)CCc1cc(Br)c(OCC2CCCCC2)c(Br)c1` [JMC496635 Compound 9] are 0.53 nM and 0.12 nM.
Take `CCCCCCOc1c(Br)cc(CCC(=O)O)cc1Br` [3-[3,5-dibromo-4-(hexyloxy)phenyl]propanoic acid]: the concentration giving a half-maximal response (EC50) in assay [1] is 0.6 nM; in assay [2], 1 nM.
Regarding `CCCCCCOc1c(Br)cc(CC(=O)O)cc1Br` [2-[3,5-dibromo-4-(hexyloxy)phenyl]acetic acid], the concentration giving a half-maximal response (EC50) in assay [1] amounted to 0.7 nM; in assay [2], 0.8 nM.
